Assay results taken from ChEMBL document CHEMBL4602703, “Lead Optimization of a Pyrrole-Based Dihydroorotate Dehydrogenase Inhibitor Series for the Treatment of Malaria” (J Med Chem, 2020).

Biological target: T1, Cytochrome P450 1A2 (Homo sapiens, UniProt P05177)
T1 sequence (P05177 whole entry): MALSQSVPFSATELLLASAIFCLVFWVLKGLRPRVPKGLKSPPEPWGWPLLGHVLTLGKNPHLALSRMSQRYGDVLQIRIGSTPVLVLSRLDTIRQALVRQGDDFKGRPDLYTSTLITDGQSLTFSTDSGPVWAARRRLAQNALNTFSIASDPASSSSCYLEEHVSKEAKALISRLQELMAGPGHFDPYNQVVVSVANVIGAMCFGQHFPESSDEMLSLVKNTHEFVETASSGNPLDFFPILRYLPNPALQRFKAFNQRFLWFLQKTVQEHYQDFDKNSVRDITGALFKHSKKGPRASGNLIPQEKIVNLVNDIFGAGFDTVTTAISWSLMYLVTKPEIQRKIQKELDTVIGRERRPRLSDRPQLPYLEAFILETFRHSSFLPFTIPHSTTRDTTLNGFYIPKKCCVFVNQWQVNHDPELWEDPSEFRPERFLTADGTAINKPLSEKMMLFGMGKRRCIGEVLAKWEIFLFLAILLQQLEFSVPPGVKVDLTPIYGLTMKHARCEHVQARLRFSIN
Assay: Time-dependent inhibition of CYP1A2 in human liver microsomes using phenacetin as substrate in presence of NADPH regenerating system by UPLC-MS analysis; call rule not given here
Format: ADME

For Cc1c(Cc2ccc(C(F)(F)F)nc2)c[nH]c1C(=O)NC1CC1, which TDI is on record?
Its TDI is “Not Active”.
